Measured values taken from article PMC8765275, “Self-Inhibitory Peptides Targeting the Neisseria gonorrhoeae MtrCDE Efflux Pump Increase Antibiotic Susceptibility” (Antimicrobial Agents and Chemotherapy, 2022).
Read-outs that look alike come from different tables or passages of the source.

Columns and labels:
[1] = system: N. gonorrhoeae strains FA1090, WHO K, WHO P, WHO X; test: Antibiotic MIC with peptide cotreatment, summarised over the strains tested; assay type: cell-based, Neisseria gonorrhoeae; settings: for Reduction of the MICs of the four antibiotics tested on cotreatment: for at least one N. gonorrhoeae strain
Procedure: (§1) Six peptides were tested against N. gonorrhoeae strains with various antimicrobial resistance phenotypes and with either standard MtrCDE expression (strain FA1090) or MtrCDE overexpression (strains WHO K, WHO P, and WHO X [15, 16]) (Table 2). […] Subsequent experiments were conducted with subinhibitory peptide concentrations (20 μg/ml for FA1090; 50 μg/ml for WHO K, WHO P, and WHO X).
(§2) Experiments were performed using a microdilution method in triplicate wells.
(§3) High-level resistance, resistance, intermediate resistance, and susceptibility phenotypes were determined per previously determined MIC values ([15]) using the interpretive criteria published by the Swedish Reference Group on Antibiotics (SGRA) ([25]). For cotreatment assays (peptide plus antibiotic), the antibiotic dilutions were made up in GC broth that contained the peptide at the appropriate concentration. The experiments were performed with peptide-only and antibiotic-only controls. Each well was inoculated with 10 μl of the appropriate N. gonorrhoeae strain at an optical density (absorbance at 600 nm) of 0.1 (∼1 × 10^6 CFU/ml). All experiments were performed with triplicate samples on at least three occasions.

[2] = system: N. gonorrhoeae strain FA1090 (standard MtrCDE expression); test: MIC, broth microdilution (CLSI), antibiotic alone, peptide alone or peptide cotreatment; assay type: cell-based; settings: Neisseria gonorrhoeae
Procedure: as §1, §2, §3

[3] = system: N. gonorrhoeae strain WHO X (MtrCDE overexpression); test: microbe, parasite or virus in culture; assay type: cell-based, Neisseria gonorrhoeae; settings: for MIC: Neisseria gonorrhoeae, 20 h
Procedure: as §1, §2, §3

[4] = system: N. gonorrhoeae strain WHO P (MtrCDE overexpression); test: microbe, parasite or virus in culture; assay type: cell-based, Neisseria gonorrhoeae; settings: for MIC: Neisseria gonorrhoeae, 20 h; for Reduction of azithromycin MIC compared with that for MtrCDE knockout versus wild-type strains: 50 μg/ml peptide, knockout comparison from ref 6; for Antimicrobial resistance phenotype, AZM, in the presence of peptide: cotreatment with 50 μg/ml peptide, EUCAST breakpoints
Procedure: as §1, §2, §3

[5] = system: N. gonorrhoeae strain WHO K (MtrCDE overexpression); test: microbe, parasite or virus in culture; assay type: cell-based, Neisseria gonorrhoeae; settings: for MIC: Neisseria gonorrhoeae, 20 h
Procedure: as §1, §2
as §3, with “High-level resistance, resistance, intermediate resistance, and susceptibility phenotypes were determined per previously determined MIC values ([15]) using the interpretive criteria published by the Swedish Reference Group on Antibiotics (SGRA) ([25]).” left out

[6] = system: N. gonorrhoeae strain WHO P ΔmtrE; test: Antibiotic MIC with or without P-MtrE1, mtrE knockout strain; assay type: cell-based, Neisseria gonorrhoeae
Procedure: (§4) N. gonorrhoeae strains used in this study include FA1090 (standard MtrCDE expression) ([22]), WHO K (MtrCDE overexpression) ([15]), WHO P (MtrCDE overexpression) ([15]), and WHO X (MtrCDE overexpression) ([16]). Wild-type strains were grown on GC agar or in GC broth (Oxoid) supplemented with IsoVitaleX (Bacto) at 37°C in 5% CO2. mtrE knockout strains of N. gonorrhoeae WHO X and WHO P (ΔmtrE) were generated by transforming bacteria with 1 μg of a linear DNA fragment (IDT) containing aminoglycoside 3′-phosphotransferase gene (NCBI accession no. VTT49712.1) flanked by 500-bp terminal fragments of the N. gonorrhoeae FA1090 mtrE gene (GenBank accession no. AE004969.1, positions 1 to 500 and 903 to 1403), as well as the gonococcal DNA uptake sequence ([…]) at the 5′ end ([23]). E. coli strain DH5α, used for cloning, was grown using Luria-Bertani agar or broth (Oxoid) at 37°C. The media were supplemented with 100 μg/ml ampicillin or 50 μg/ml kanamycin, as required.
as §2, §3

[7] = system: N. gonorrhoeae strain WHO X ΔmtrE; test: as above; assay type: cell-based, Neisseria gonorrhoeae
Procedure: as §4, §2, §3

[8] = read-out: MIC of ERY (erythromycin)
[9] = read-out: MIC of AZM (azithromycin)
[10] = WHO K, antibiotic alone, EUCAST breakpoints
[11] = gentamicin is not subject to efflux by MtrCDE
[12] = presence or absence of subinhibitory P-MtrE1 concentrations (0 or 6.5 μg/ml, Fig. 2)
[13] = read-out: MIC of CRO (ceftriaxone)

(KFF)3KGSGVFLVPLFY [P-MtrD1, self-derived peptide, 8 amino acids of MtrD fused to (KFF)3K cell-permeating peptide and GSG linker]
Reduction of the MICs of the four antibiotics tested on cotreatment [1]: at least 2 fold

CC[C@H]1OC(=O)[C@H](C)[C@@H](O[C@H]2C[C@@](C)(OC)[C@@H](O)[C@H](C)O2)[C@H](C)[C@@H](O[C@@H]2O[C@H](C)C[C@H](N(C)C)[C@H]2O)[C@](C)(O)C[C@@H](C)C(=O)[C@H](C)[C@@H](O)[C@]1(C)O [ERY, erythromycin, reference compound]
MIC ([2]; antibiotic alone, microdilution per CLSI, GC broth, 20 h, triplicate wells, read-out: MIC of ERY (erythromycin)): 0.2 µg/mL
MIC [3, 8]: 2 µg/mL
MIC [4, 8]: 16 µg/mL

(KFF)3KGSGDAAHLSLIATVAKAYFNERY [P-MtrE2, self-derived peptide, 20 amino acids of MtrE fused to (KFF)3K cell-permeating peptide and GSG linker]
Reduction of the MICs of the four antibiotics tested on cotreatment [1]: at least 2 fold

CC[C@H]1OC(=O)[C@H](C)[C@@H](O[C@H]2C[C@@](C)(OC)[C@@H](O)[C@H](C)O2)[C@H](C)[C@@H](O[C@@H]2O[C@H](C)C[C@H](N(C)C)[C@H]2O)[C@](C)(O)C[C@@H](C)CN(C)[C@H](C)[C@@H](O)[C@]1(C)O [AZM, azithromycin]
MIC ([2]; read-out: MIC of AZM (azithromycin), antibiotic alone, microdilution per CLSI, GC broth, 20 h, triplicate wells): 0.063 µg/mL
MIC [5, 9]: 0.25 µg/mL
Antimicrobial resistance phenotype, AZM [5, 10]: S (S ≤ 0.25)
MIC [3, 9]: 0.5 µg/mL
MIC [4, 9]: 4 µg/mL

(KFF)3KGSG HLSLIATV [P-MtrE1, self-derived peptide, 8 amino acids of MtrE fused to (KFF)3K cell-permeating peptide and GSG linker]
Impact of peptide on susceptibility to gentamicin ([3]; WHO X wild-type, gentamicin is not subject to efflux by MtrCDE): no impact
Reduction of ciprofloxacin and ceftriaxone MICs compared with that between MtrCDE knockout and wild-type strains ([3]; WHO X, 50 μg/ml peptide, knockout comparison from ref 6): same magnitude
Peptide concentration able to reduce the MICs of ciprofloxacin and ceftriaxone ([3]; WHO X, concentrations as low as): ≤ 6.25 µg/mL
Impact of peptide on susceptibility to gentamicin ([4]; WHO P wild-type, gentamicin is not subject to efflux by MtrCDE): no impact
Reduction of azithromycin MIC compared with that for MtrCDE knockout versus wild-type strains ([4]; WHO P): same magnitude
Peptide concentration able to reduce the MICs of erythromycin and azithromycin ([4]; WHO P, concentrations as low as): ≤ 6.25 µg/mL
Antimicrobial resistance phenotype, AZM, in the presence of peptide ([4]; WHO P): S (S ≤ 0.25)
Impact of peptide on susceptibility to gentamicin [6, 11]: no impact
Change in antibiotic susceptibility to erythromycin or azithromycin with peptide [6, 12]: no change
Impact of peptide on susceptibility to gentamicin [7, 11]: no impact
Change in antibiotic susceptibility to ciprofloxacin or ceftriaxone with peptide [7, 12]: no change
Reduction of the MICs of the four antibiotics tested on cotreatment [1]: at least 2 fold

CO/N=C(\C(=O)N[C@@H]1C(=O)N2C(C(=O)O)=C(CSc3nc(=O)c(=O)[nH]n3C)CS[C@H]12)c1csc(N)n1 [CRO, ceftriaxone]
MIC ([2]; read-out: MIC of CRO (ceftriaxone), antibiotic alone, microdilution per CLSI, GC broth, 20 h, triplicate wells): < 0.0078 µg/mL
MIC [5, 13]: 0.031 µg/mL
Antimicrobial resistance phenotype, CRO [5, 10]: S (S ≤ 0.125)
MIC [3, 13]: 2 µg/mL
MIC [4, 13]: 0.004 µg/mL

(KFF)3KGSGVMKLRRQI [P-MtrC1, self-derived peptide, 8 amino acids of MtrC fused to (KFF)3K cell-permeating peptide and GSG linker]
Reduction of azithromycin MIC compared with that for MtrCDE knockout versus wild-type strains ([4]; WHO P): same magnitude
Antimicrobial resistance phenotype, AZM, in the presence of peptide ([4]; WHO P): I
Reduction of the MICs of the four antibiotics tested on cotreatment [1]: at least 2 fold

HLSLIATV [P-MtrE1a]
Effect of peptide on susceptibility to the antibiotics tested ([1]; control peptides, any strain against which P-MtrE1 had an effect): not able to increase susceptibility to any antibiotic
